According to US20260285860A1, “INHIBITORS OF cGAS AND USES THEREOF” (The Trustees of Columbia University in the City of New York, priority 2023, published 2026):

Columns and labels:
[1] = test system: KL, 4T1, CT26, B16F10 and E0771.1mb tumors; experiment: MSA-2 treatment of transplanted wild type or Cgas KO tumors; type: in vivo
Description: To test if loss of tumor cell cGAS activity would sensitize otherwise resistant chromosomally unstable tumors to STING agonists, wild type or Cgas KO cells […] biweekly with MSA-2.

[2] = test system: KL, 4T1, and EO771.1mb tumors; experiment: RU.521 and MSA-2 combination treatment of KL, 4T1 and EO771.1mb tumors in animals; type: in vivo; conditions: KL (subcutaneous), 4T1 and EO771.1mb (orthotopic); agent alone
Method: (§1) Given mounting evidence on reprograming of macrophages by STING agonists, macrophage polarization assays were carried out. […] Finally, KL, 4T1, and EO771.1mb were inoculated subcutaneously (KL) or orthotopically (4T1 and EO771.1mb) to evaluate the efficacy of RU.521 and MSA-2 combination treatment. Animals were pre-treated with RU.521 to ensure sufficient drug exposure by the time the first MSA-2 dose was administrated and continued RU.521 throughout the treatment course. Animals were treated with MSA-2 when tumors reached ~100 mm3.

[3] = test system: macrophages; experiment: Macrophage polarization assays with conditioned media from MSA-2-treated cancer cells; type: cell-based
Method: as §1

[4] = test system: HCC44; experiment: Treatment of HCC44 with cGAS inhibitor, STING signaling in response to cGAMP stimulation; type: cell-based, human; conditions: HCC44 cells
Description: Suppression of CIN or cGAS activity restores immunogenic potential of LKB1-deficient NSCLC. In experiments, relief of tonic STING activation via cGAMP could be removed by genetically deleting cGAS. Treatment of HCC44 with a commercially available human-selective cGAS inhibitor (G150) restored STING protein levels and enhanced pTBK1 and pIRF3 in response to cGAMP stimulation, thus, phenocopying genetic cGAS deletion experiments.

[5] = Cgas KO tumors, KL, 4T1, CT26, B16F10, MSA-2 biweekly

| Compound | survival of treated animals [1, 5] | tumor growth [1, 5] | survival of animals ([1]; E0771.1mb Cgas KO tumors) | tumor growth ([1]; E0771.1mb tumors, both cGAS proficient and deficient) | tumor growth and survival benefit ([1]; wildtype tumors) | tumor growth, single agent [2] | Arginase 1 (M2-like marker) in macrophages ([3]; conditioned media from KL, 4T1, CT26 and B16F10 cells treated with MSA-2, with inhibition of cGAS in cancer cells) | iNOS (M1-like marker) in macrophages ([3]; conditioned media from MSA-2-treated Cgas KO cells versus wildtype MSA-2-treated cancer cells) | STING protein levels [4] | pIRF3 in response to cGAMP stimulation ([4]; cGAMP stimulation) | pTBK1 in response to cGAMP stimulation ([4]; cGAMP stimulation) |
| --- | --- | --- | --- | --- | --- | --- | --- | --- | --- | --- | --- |
| COc1cc2cc(C(=O)CCC(=O)O)sc2cc1OC [MSA-2] | extending the survival | significantly slowed the growth | prolonged survival | grew slightly slower | comparatively minimal effect | did not significantly hinder tumor growth | reductions of Arginase 1 | robust increase in iNOS |  |  |  |
| Nc1ccc(-c2cc(Cl)c(Cl)c3[nH]c4c(c23)CN(C(=O)CO)CC4)cn1 [G150] |  |  |  |  |  |  |  |  | restored | enhanced | enhanced |
